In article PMC8588310, “Identification and Preliminary Structure-Activity Relationship Studies of 1,5-Dihydrobenzo[e][1,4]oxazepin-2(3H)-ones That Induce Differentiation of Acute Myeloid Leukemia Cells In Vitro” (Molecules, 2021):
Converted amounts (≈) assume the structure as drawn.

Key:
HL-60 cells = test: CD11b expression assay by flow cytometry in HL-60 cells; assay type: cell-based, human; conditions: for EC50: Homo sapiens, HL-60, 96 h, 4-day (96 h) treatment, CD11b upregulation, read-out: EC50 [nM], %CD11b response in HL60 cells; for EC50 / Activity in the CD11b assay: HL-60 cells; for LipE (lipophilic efficiency): LipE = -LogEC50-cLogP, EC50 of CD11b assay in HL-60; for Activity in the CD11b assay: concentration-response
Description: Cells were treated with 1000 structurally diverse small molecules selected from a commercial library. A single point testing concentration of 10 µM was used. After 4 days, cells were stained with a CD11b antibody and analysed using flow cytometry. Compounds upregulating CD11b expression greater than 10% in at least three of the cell lines were considered as potential hits. Hit confirmation was undertaken as follows: first, the hit was re-tested at 10 µM both with the CD11b antibody and an isotype control to account for nonspecific binding. Secondly, the effect of the hit on cell proliferation and viability was evaluated through staining with DAPI to evaluate the number of dead cells, and with acridine orange to detect total cell numbers. Thirdly, the induction of differentiation caused by the compounds was confirmed through morphology assessment with Giemsa staining. Finally, the molecule was resynthesised and fully characterised to confirm structural authenticity. This fresh sample was then retested in the CD11b assay to generate a concentration-response curve. The study of proliferation and morphology was performed on a panel of six cell lines: HL-60, THP-1, OCI-AML3, KG-1, Kasumi-1 and ME-1.
Thus, structure-activity relationship studies were initiated, where the potency of the new analogues was evaluated through concentration-response testing using the CD11b assay in HL-60 cells. Lipophilic efficiency (LipE), which also accounts for lipophilicity, was also used to compare the quality of the analogues. Even though multiple parameters can influence activity in a cell-based assay, LipE is a useful guide to compare analogues.
PE mouse-anti-human-CD11b/Mac-1 (ICRF44, Cat 555388) and PE-mouse-IgG1-κ-isotype control (MOPC-21, Cat 555749) were purchased from BD Bioscience. Cells were suspended in 100 μL growth media (RPMI + 10% FBS + 1% L-glutamine) at a density of 2 × 10^4 cells/well of a V-bottom 96 well plate (Corning, Cat 3894) and grown for 96 h in the presence of compound at the required concentration. After 96 h, the plate was centrifuged, media was removed, and cells were resuspended in 50 µL of blocking buffer (IMDM, no phenol red + 10% FBS) containing 2.5 μL of either CD11b or isotype control antibody and incubated on ice in the dark for 20 min. Cells were washed twice in 200 μL of staining buffer (IMDM, no phenol red + 1% FBS) before being resuspended in 200 μL of staining buffer containing 1 μg/mL of DAPI to help identify dead cells. Flow cytometry data were collected on an Attune NxT and analysed using the Attune NxT software (Life Technologies).

[1] = Semi-thermodynamic aqueous solubility; assay type: physicochemical; conditions: thermodynamic from solid
Description: (§1) Determination of semi-thermodynamic solubility, metabolic stability in S9 fraction, Caco-2 permeability and PPB were performed by Cyprotex Ltd. (www.cyprotex.com, accessed on 22 October 2021) using their standard assays and as described on their website.

[2] = Single dose PK study in male CD-1 mice; assay type: in vivo, mouse; conditions: for bioavailability / half-life / Cmax / Tmax / Vd/F: mouse, whole blood; for bioavailability: 3 mg/kg po vs 0.33 mg/kg iv; for half-life: single dose 3 mg/kg po and 0.33 mg/kg iv, route of parameter not given; for half-life / Cmax / Tmax / Vd/F / Clobs / Clobs/F: blood; for Cmax / Tmax / Vd/F / Clobs/F: single dose 3 mg/kg po; for Vd/F: read-out: Vz/F; for Clobs: single dose 0.33 mg/kg iv
Source text: In order to undertake a preliminary assessment of the pharmacokinetic (PK) profile of this compound class, three compounds were deemed to have sufficient intrinsic potency, solubility and in vitro metabolic stability properties to progress into a single dose in vivo PK study. […] […] […] Nonetheless, the clearance of the three compounds was high to moderate, and at this dose the in vitro EC50 was not reached.
Male CD-1 mice were used for the PK studies, with three for each treatment. […] Blood concentration was measured by LC-MS/MS over 24 h.

[3] = Metabolic stability in mouse S9 fraction; assay type: in vitro ADME; conditions: ER = Clint/species flow rate (mice: 90 mL/min/kg)
Description: as §1
[22] Extraction ratio (ER) is calculated as the measured intrinsic clearance over the hepatic blood flow of each species (90 mL/min/kg for mice). It has the advantage over other parameters (half-life, clearance) that it is independent of the species used

porcine neuronal tubulin = biological target: T1, porcine neuronal tubulin (Sus scrofa, UniProt P02550+P02554); test: Microtubule (tubulin) polymerisation cell-free assay; assay type: biochemical; conditions: testing concentrations of up to 100 μM
T1 construct: performed using porcine neuronal tubulin (Cytoskeleton, Inc, Denver, CO, USA, BK006P); purchased Cytoskeleton, Inc BK006P; host or cells: porcine brain (neuronal) tissue
Description: The microtubule polymerisation assay was performed using porcine neuronal tubulin (Cytoskeleton, Inc, Denver, CO, USA, BK006P) as an adaptation of the original method of Shelanski et al. and Lee et al. at Cytoskeleton, Inc.

[4] = aqueous (buffer or water not specified)
[5] = aqueous (not further specified)
[6] = aqueous medium (buffer not specified)

T1 sequence (P02550 whole entry): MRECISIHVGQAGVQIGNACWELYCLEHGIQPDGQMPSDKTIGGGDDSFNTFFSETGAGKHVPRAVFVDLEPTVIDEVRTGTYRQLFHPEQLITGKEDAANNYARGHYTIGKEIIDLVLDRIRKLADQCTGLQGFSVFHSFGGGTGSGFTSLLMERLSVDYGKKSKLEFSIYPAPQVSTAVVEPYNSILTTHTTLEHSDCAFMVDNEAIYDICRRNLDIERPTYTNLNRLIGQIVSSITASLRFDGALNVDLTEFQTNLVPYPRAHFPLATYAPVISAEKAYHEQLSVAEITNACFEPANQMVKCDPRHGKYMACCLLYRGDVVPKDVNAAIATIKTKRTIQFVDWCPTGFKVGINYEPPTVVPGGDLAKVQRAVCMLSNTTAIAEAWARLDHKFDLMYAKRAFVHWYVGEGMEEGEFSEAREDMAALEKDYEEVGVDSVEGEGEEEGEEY
T1 sequence (P02554 whole entry): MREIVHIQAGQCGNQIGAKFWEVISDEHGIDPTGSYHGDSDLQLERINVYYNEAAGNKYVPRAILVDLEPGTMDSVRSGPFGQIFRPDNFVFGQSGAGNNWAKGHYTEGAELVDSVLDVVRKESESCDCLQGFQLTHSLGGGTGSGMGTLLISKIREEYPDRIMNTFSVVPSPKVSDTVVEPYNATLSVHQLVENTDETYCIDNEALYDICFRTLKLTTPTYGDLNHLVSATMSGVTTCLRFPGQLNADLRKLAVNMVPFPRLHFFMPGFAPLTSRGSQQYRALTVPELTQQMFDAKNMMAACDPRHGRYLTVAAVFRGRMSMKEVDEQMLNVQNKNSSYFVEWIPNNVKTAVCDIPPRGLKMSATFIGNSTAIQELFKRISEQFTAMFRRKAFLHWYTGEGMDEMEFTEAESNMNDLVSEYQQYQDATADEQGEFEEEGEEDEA

SMILES | EC50 (HL-60 cells) [nM] | LipE (lipophilic efficiency) (HL-60 cells) | solubility thermodynamic [1, 4] [µM] | ER in mS9 (extraction ratio) [3] | further results
CS(=O)(=O)Nc1cccc(-c2ccc3c(c2)N(c2ccccc2)C(=O)COC3)c1 [Compound 14, N-(3-(2-Oxo-1-phenyl-1,2,3,5-tetrahydrobenzo[e][1,4]oxazepin-8-yl)phenyl)methanesulfonamide] | 220 | 3.9 | 14 (≈ 5.72 µg/mL) |  | bioavailability [2]: 15%; half-life [2]: 4.1 h; Cmax [2]: 44 ng/mL; Tmax [2]: 1.2 h; Vd/F [2]: 100 L/kg; Clobs [2]: 43 mL/min/kg; Clobs/F [2]: 286 mL/min/kg; Clearance ([2]; single dose iv 0.33 mg/kg and po 3 mg/kg): lowest clearance
CS(=O)(=O)Nc1cccc(-c2ccc3c(c2)N(C2COC2)C(=O)COC3)c1 [Compound 13, N-(3-(1-(Oxetan-3-yl)-2-oxo-1,2,3,5-tetrahydrobenzo[e][1,4]oxazepin-8-yl)phenyl)methanesulfonamide] | > 10000 |  | 10 (≈ 3.88 µg/mL) | 0.08 | 
CC(C)N1C(=O)COCc2ccc(-c3ccc(F)c(NS(C)(=O)=O)c3)cc21 [Compound 35, N-(2-Fluoro-5-(1-isopropyl-2-oxo-1,2,3,5-tetrahydrobenzo[e][1,4]oxazepin-8-yl)phenyl)methanesulfonamide] | 1600 | 4.0 |  | 0.21 | solubility thermodynamic [1, 5]: > 200 µM
CCN1C(=O)COCc2ccc(-c3cccc(NS(C)(=O)=O)c3)cc21 [Compound 8, N-(3-(1-Ethyl-2-oxo-1,2,3,5-tetrahydrobenzo[e][1,4]oxazepin-8-yl)phenyl)methanesulfonamide] | 6200 | 3.8 | > 200 | 0.25 | 
CC(C)N1C(=O)COCc2ncc(-c3cccc(NS(C)(=O)=O)c3)cc21 [Compound 42, N-(3-(1-Isopropyl-2-oxo-1,2,3,5-tetrahydropyrido[3,2-e][1,4]oxazepin-8-yl)phenyl)methanesulfonamide] | 2200 | 4.9 |  | 0.09 | Activity in the CD11b assay (HL-60 cells): retained weak activity; solubility thermodynamic [1, 6]: > 200 µM
CS(=O)(=O)Nc1cccc(-c2ccc3c(c2)N(C2CCCC2)C(=O)COC3)c1 [Compound 12, N-(3-(1-Cyclopentyl-2-oxo-1,2,3,5-tetrahydrobenzo[e][1,4]oxazepin-8-yl)phenyl)methanesulfonamide] | 650 | 4.0 | 124 (≈ 49.7 µg/mL) | 0.83 | 
CS(=O)(=O)Nc1cccc(-c2ccc3c(c2)N(CC2CC2)C(=O)OC3)c1 [Compound 41, N-(3-(1-(Cyclopropylmethyl)-2-oxo-1,4-dihydro-2H-benzo[d][1,3]oxazin-7-yl)phenyl)methanesulfonamide] | 15000 | 2.5 |  | 0.54 | Loss in activity compared to OXS003976 (HL-60 cells; CD11b EC50 in HL-60, vs OXS003976): 15 fold; solubility thermodynamic [1, 6]: 77 µM (≈ 28.7 µg/mL)
CC(C)N1C(=O)COCc2ccc(-c3ccccc3NS(C)(=O)=O)cc21 [Compound 25, N-(2-(1-Isopropyl-2-oxo-1,2,3,5-tetrahydrobenzo[e][1,4]oxazepin-8-yl)phenyl)methanesulfonamide] | > 30000 |  |  |  | Activity in the CD11b assay (HL-60 cells): inactive; Effect on polymerisation of tubulin (porcine neuronal tubulin): did not have an effect
Cc1ccc(-c2ccc3c(c2)N(C(C)C)C(=O)COC3)cc1NS(C)(=O)=O [Compound 36, N-(5-(1-Isopropyl-2-oxo-1,2,3,5-tetrahydrobenzo[e][1,4]oxazepin-8-yl)-2-methylphenyl)methanesulfonamide] | 600 | 4.1 |  | 1 | solubility thermodynamic [1, 5]: > 200 µM
COc1ccc(-c2ccc3c(c2)N(C(C)C)C(=O)COC3)cc1NS(C)(=O)=O [Compound 37, N-(5-(1-Isopropyl-2-oxo-1,2,3,5-tetrahydrobenzo[e][1,4]oxazepin-8-yl)-2-methoxyphenyl)methanesulfonamide] | 1200 | 4.2 |  | 1 | solubility thermodynamic [1, 5]: > 200 µM
CS(=O)(=O)Nc1cccc(-c2ccc3c(c2)N(CC(F)(F)F)C(=O)COC3)c1 [Compound 11, N-(3-(2-Oxo-1-(2,2,2-trifluoroethyl)-1,2,3,5-tetrahydrobenzo[e][1,4]oxazepin-8-yl)phenyl)methanesulfonamide] | 1900 | 3.8 | 33 (≈ 13.7 µg/mL) | 0.05 | bioavailability [2]: 38%; half-life [2]: 5.8 h; Cmax [2]: 160 ng/mL; Tmax [2]: 0.33 h; Vd/F [2]: 73 L/kg; Clobs [2]: 61 mL/min/kg; Clobs/F [2]: 159 mL/min/kg
CC(C)CN1C(=O)COCc2ccc(-c3cccc(NS(C)(=O)=O)c3)cc21 [Compound 10, N-(3-(1-Isobutyl-2-oxo-1,2,3,5-tetrahydrobenzo[e][1,4]oxazepin-8-yl)phenyl)methanesulfonamide] | 740 | 4.0 | > 200 | 0.51 | 
CN1C(=O)COCc2ccc(-c3cccc(NS(C)(=O)=O)c3)cc21 [Compound 7, N-(3-(1-Methyl-2-oxo-1,2,3,5-tetrahydrobenzo[e][1,4]oxazepin-8-yl)phenyl)methanesulfonamide] | > 30000 |  | > 200 | 0.07 | Activity in the CD11b assay (HL-60 cells): completely inactive
COC(=O)Nc1cccc(-c2ccc3c(c2)N(C(C)C)C(=O)COC3)c1 [Compound 28, Methyl (3-(1-isopropyl-2-oxo-1,2,3,5-tetrahydrobenzo[e][1,4]oxazepin-8-yl)phenyl)carbamate] | 500 | 3.7 |  | 0.31 | Activity in the CD11b assay (HL-60 cells): equally active; solubility thermodynamic [1, 5]: 88 µM (≈ 31.2 µg/mL)
